The record followed here is ChEMBL document CHEMBL1201862, “PubChem BioAssay data set” (2004).

Broadly, the EC50 is the concentration at which the effect is half-maximal. Broadly, the IC50 is the concentration needed to halve the response being measured. Usually AC50 stands for the concentration giving half of the maximal activity seen.

Assay [1] addresses T1, Insulin-degrading enzyme (Homo sapiens, UniProt P14735).
T1 sequence (P14735 whole entry): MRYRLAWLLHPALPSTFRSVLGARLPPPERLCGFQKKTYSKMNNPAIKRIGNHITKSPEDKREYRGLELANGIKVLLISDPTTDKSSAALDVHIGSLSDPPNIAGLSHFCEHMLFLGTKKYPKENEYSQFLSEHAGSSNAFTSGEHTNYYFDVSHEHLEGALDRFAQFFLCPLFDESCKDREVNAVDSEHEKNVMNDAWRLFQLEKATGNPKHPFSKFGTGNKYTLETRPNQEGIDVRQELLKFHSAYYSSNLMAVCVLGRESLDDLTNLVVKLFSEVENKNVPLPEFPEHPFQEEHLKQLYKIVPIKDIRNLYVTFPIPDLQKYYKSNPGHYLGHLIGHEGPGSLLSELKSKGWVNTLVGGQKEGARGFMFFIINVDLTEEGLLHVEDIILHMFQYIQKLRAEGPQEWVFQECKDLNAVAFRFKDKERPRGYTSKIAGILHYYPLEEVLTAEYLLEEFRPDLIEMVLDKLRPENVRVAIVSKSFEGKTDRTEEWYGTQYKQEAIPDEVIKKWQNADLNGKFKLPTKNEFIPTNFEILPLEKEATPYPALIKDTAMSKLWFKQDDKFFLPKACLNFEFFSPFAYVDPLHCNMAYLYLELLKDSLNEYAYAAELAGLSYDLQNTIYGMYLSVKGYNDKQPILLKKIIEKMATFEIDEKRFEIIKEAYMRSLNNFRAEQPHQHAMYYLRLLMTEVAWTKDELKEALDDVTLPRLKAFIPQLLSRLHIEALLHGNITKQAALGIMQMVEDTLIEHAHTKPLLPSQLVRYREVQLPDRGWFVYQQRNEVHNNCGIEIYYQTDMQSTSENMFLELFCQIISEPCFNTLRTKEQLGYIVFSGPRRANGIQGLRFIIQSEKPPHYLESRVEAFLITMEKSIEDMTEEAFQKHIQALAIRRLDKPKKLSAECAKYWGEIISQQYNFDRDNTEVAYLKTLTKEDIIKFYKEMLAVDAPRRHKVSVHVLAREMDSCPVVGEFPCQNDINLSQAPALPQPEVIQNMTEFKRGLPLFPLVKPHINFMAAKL
The experiment in a line: cellular IDE activation of Abeta substrate cleavage – fluorescence polarization, HEK cells, dose response (AID 588439). The class given is functional, cell-based.

Assay [2] concerns HEK293. As to the kind of experiment: optical interference in Abeta FP readout, dose response, artefact control for IDE activator project, biochemical, fluorescence polarization (AID 588442). The class given is functional, cell-based. The conditions noted are these: Homo sapiens. On the technique in general: Fluorescence polarisation rises when a labelled molecule tumbles more slowly, as on binding a larger partner.

In assay [3] the target is T1, Insulin-degrading enzyme. The experiment in a line: recombinant IDE activation, cell-free – biochemical, fluorescence polarization, counter-screen for IDE activator project, dose response (AID 588681).
For assay [4], the system named is HEK293. The experiment in a line: membrane integrity loss in HEK cells – cell-based, fluorescence, cytotoxicity control for IDE activator project, dose response (AID 588440).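 Note: cytotoxicity by LDH release measuring loss of membrane integrity.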 In kind it is functional. As to conditions: Homo sapiens.
For assay [5], the target named is T2, Ubiquitin-conjugating enzyme E2 N (Homo sapiens, UniProt P61088).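 Note: Dose-response confirmation in a TR-FRET assay detecting UBC13-driven polyubiquitin chain formation, inhibition measured.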
T2 sequence (P61088 whole entry): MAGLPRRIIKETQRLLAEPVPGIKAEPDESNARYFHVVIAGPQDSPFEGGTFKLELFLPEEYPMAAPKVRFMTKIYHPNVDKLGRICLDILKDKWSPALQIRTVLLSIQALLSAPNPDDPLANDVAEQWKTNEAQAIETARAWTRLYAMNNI
In kind it is functional.

A further assay concerns INS1. As to the kind of experiment: INS-1E survival protection against cytokine death – cell-based, luminescence, retest, dose response (AID 449756).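 Note: cell death triggered by IL-1 beta plus TNF-alpha plus IFN-gamma mixture; protective hits raise ATP signal compared with cytokine alone wells.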 The class given is functional. The conditions noted are these: Rattus norvegicus.
For assay [6], the system named is Streptococcus sp. 'group A'. As to the kind of experiment: Streptococcus pyogenes SK(-)GAS viability under kanamycin – luminescence, BacTiterGlo, confirmation, counter-screen for streptokinase expression inhibitor project, dose response (AID 1900). The class given is functional, organism-based. In general terms: The purpose of a counterscreen is to sort out artefacts and off-target activity.

In a further assay the target is T3, Streptokinase A (Streptococcus pyogenes serotype M1, UniProt P10520).
T3 sequence (P10520 whole entry): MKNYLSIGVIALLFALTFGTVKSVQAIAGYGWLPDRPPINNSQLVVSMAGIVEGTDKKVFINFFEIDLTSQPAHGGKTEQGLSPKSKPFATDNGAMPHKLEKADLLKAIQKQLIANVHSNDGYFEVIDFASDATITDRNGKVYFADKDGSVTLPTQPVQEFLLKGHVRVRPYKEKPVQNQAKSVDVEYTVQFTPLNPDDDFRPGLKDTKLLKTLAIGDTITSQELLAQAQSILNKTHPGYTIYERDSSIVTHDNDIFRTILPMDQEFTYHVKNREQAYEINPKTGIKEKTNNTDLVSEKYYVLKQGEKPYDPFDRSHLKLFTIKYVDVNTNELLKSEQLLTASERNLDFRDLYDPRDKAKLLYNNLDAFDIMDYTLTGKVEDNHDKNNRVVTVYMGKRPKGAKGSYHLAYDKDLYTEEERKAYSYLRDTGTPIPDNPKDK
As to the kind of experiment: viability-normalized secreted streptokinase activity reduction – plasminogen activation absorbance, OD405, dose response (AID 1914).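 Note: secreted streptokinase activity via plasminogen activation per viability signal from cell pellet.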 The class given is functional, Streptococcus pyogenes M1 GAS.

The next assay concerns Streptococcus. As to the kind of experiment: GAS UMAA2166 growth inhibition – luminescence, BacTiterGlo, counter-screen for streptokinase expression inhibitor project, dose response (AID 1915).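 Note: potency for reduction of bacterial viability or growth.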 In kind it is functional, organism-based.
For assay [7], the target named is T4, Endoribonuclease toxin MazF (Escherichia coli K-12, UniProt P0AE70).
T4 sequence (P0AE70 whole entry): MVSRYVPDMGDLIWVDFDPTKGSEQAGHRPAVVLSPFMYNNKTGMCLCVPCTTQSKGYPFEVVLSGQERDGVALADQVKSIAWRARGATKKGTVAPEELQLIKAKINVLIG
As to the kind of experiment: substrate-only fluorescence increase artefacts – biochemical, single-stranded RNase substrate, counter-screen for MazEF activator project, dose response (AID 588502). The class given is functional.

The target in assay [8] is T5, RNA-binding protein pos-1 (Caenorhabditis elegans, UniProt G5EF15).
T5 sequence (G5EF15 whole entry): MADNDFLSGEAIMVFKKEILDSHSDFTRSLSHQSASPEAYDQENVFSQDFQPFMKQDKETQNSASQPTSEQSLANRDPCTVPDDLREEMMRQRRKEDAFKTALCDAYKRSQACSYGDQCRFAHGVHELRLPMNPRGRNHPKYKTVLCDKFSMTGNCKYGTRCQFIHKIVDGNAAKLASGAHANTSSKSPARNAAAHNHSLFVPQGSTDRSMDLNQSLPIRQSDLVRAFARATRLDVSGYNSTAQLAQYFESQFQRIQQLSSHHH
As to the kind of experiment: disruptors of C. elegans POS-1 RNA interaction – biochemical, fluorescence polarization, dose response (AID 1964).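 Note: purified POS-1 fused to maltose binding protein made in E. coli; potency of compounds blocking POS-1 binding to fluorescent RNA.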

Assay [9] has as its target T4, Endoribonuclease toxin MazF. As to the kind of experiment: activation of MazEF endoribonuclease cleavage – biochemical, fluorescence, single-stranded RNA substrate, uHTS hits, dose response (AID 588481). The class given is functional.
In assay [10] the target is T6, Zinc finger protein mex-5 (Caenorhabditis elegans, UniProt Q9XUB2).
T6 sequence (Q9XUB2 whole entry): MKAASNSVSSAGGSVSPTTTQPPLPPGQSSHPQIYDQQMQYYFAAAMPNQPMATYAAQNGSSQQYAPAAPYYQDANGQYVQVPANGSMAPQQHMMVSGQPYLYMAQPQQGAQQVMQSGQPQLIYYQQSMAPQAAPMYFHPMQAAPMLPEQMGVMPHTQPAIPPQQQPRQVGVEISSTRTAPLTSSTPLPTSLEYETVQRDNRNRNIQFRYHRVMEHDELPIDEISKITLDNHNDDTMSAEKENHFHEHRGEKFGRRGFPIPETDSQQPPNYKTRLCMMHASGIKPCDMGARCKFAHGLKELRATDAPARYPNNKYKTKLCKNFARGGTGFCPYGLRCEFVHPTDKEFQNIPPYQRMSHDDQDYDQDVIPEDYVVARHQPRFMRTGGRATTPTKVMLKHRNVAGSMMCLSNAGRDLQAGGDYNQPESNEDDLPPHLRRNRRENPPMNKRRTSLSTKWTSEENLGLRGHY
As to the kind of experiment: potency of MEX-5 RNA-binding blockers – biochemical, C. elegans, fluorescence polarization, dose response (AID 1960).

Another assay is described as follows: cells. The class given is functional.

The source made the active and inactive calls.

Take `O=C(c1ccccc1)N1CCN(c2ccc([N+](=O)[O-])c(NCc3cccnc3)c2)CC1`: the EC50 at Insulin-degrading enzyme [1], in the assay on HEK293 [2] and on Insulin-degrading enzyme [3] was > 54.7 µM (inactive) each time. In the assay with HEK293 [4], the IC50 was > 89.2 µM (inactive).

Take `COC(=O)C1=C(C)N(Cc2ccccc2)C(NCc2cccc(C(F)(F)F)c2)=N[C@H]1c1cccc(C(F)(F)F)c1`: the values for the IC50 (in assay [5]; in the assay with HEK293 [4]) were > 20 µM (inactive) and 13.6 µM (inactive), respectively. The results for the EC50 on Insulin-degrading enzyme [1], with HEK293 [2] and on Insulin-degrading enzyme [3] were > 6.08 µM (active), > 54.7 µM (inactive) and > 54.7 µM (inactive), respectively. In addition, the AC50 in the assay on INS1 is 5.53 µM (active).

Take `NC(=O)c1ccc(NC(=O)COC(=O)c2c3c(nc4ccccc24)/C(=C\c2ccc4c(c2)OCO4)CCC3)cc1`: the EC50 is 13.6 µM (active) in assay [6]; > 54.7 µM (inactive) on Insulin-degrading enzyme [1]; > 54.7 µM (inactive) with HEK293 [2]; > 54.7 µM (inactive) on Insulin-degrading enzyme [3]; > 150 µM (not active) on Streptokinase A; 140 µM (active) with Streptococcus. For the same molecule, the IC50 in the assay on HEK293 [4] is > 89.2 µM (inactive).

As for `CCc1cc(Cn2nc(C(=O)O)cc2-c2ccccc2)on1`, the EC50 on Insulin-degrading enzyme [1], in the assay with HEK293 [2] and at Insulin-degrading enzyme [3] was > 54.7 µM (inactive) throughout. Also, in the assay on HEK293 [4], the IC50 was > 89.3 µM (inactive).

`O=[N+]([O-])c1ccc(Nc2ccccc2O)c2nonc12`: the EC50 in [7] is > 99 µM (inactive); in [8], 24.4 µM (active); in assay [9], > 99 µM (inactive); in assay [10], 28.2 µM (active). Besides, the IC50 in “cells” was 5.81 µM (active).

In the case of `O=[N+]([O-])c1ccc(S(=O)(=O)N[N-][C+]2CCCCC2)cc1`, the EC50 in [7] is 7.03 µM (active); in assay [9], > 99 µM (inactive).
